What is called IC50 is the concentration at which inhibition is half-maximal. Higher therefore signals a need for much substance.

A value given as a limit tells only on which side of the number the result lay.

IC50 data for twelve molecules are collected here from patent US12509447B2, “Small molecule compound” (Technoderma Medicines Pte Ltd, priority 2019, dated 2025).

Assay type in all cases: biochemical
In one experiment the target is JAK1 (Homo sapiens, UniProt P23458). Put plainly: Inhibition of JAK kinase activity, EZ Reader microfluidic phosphorylation of peptide substrate: JAK1. Particulars: JAK1 kinase 20 nM; highest final concentration 10 μM, 1:3 serial dilution, 8 points, duplicates. Summed up: (§1)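 Microfluidic mobility-shift assay reading fluorescent peptide substrate and product; kinases at 20 nM (JAK1) or 1 nM (JAK2, JAK3, Tyk2) in pH 7.4 HEPES with 10 mM MgCl2, run at room temperature to 20-30% conversion, then stopped with EDTA. Compounds tested from 10 μM top, 1:3 over 8 points in duplicate; IC50 fitted from % conversion.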

The next experiment deals with T1, JAK3 (Homo sapiens, UniProt P52333).
T1 sequence (P52333 1-1124): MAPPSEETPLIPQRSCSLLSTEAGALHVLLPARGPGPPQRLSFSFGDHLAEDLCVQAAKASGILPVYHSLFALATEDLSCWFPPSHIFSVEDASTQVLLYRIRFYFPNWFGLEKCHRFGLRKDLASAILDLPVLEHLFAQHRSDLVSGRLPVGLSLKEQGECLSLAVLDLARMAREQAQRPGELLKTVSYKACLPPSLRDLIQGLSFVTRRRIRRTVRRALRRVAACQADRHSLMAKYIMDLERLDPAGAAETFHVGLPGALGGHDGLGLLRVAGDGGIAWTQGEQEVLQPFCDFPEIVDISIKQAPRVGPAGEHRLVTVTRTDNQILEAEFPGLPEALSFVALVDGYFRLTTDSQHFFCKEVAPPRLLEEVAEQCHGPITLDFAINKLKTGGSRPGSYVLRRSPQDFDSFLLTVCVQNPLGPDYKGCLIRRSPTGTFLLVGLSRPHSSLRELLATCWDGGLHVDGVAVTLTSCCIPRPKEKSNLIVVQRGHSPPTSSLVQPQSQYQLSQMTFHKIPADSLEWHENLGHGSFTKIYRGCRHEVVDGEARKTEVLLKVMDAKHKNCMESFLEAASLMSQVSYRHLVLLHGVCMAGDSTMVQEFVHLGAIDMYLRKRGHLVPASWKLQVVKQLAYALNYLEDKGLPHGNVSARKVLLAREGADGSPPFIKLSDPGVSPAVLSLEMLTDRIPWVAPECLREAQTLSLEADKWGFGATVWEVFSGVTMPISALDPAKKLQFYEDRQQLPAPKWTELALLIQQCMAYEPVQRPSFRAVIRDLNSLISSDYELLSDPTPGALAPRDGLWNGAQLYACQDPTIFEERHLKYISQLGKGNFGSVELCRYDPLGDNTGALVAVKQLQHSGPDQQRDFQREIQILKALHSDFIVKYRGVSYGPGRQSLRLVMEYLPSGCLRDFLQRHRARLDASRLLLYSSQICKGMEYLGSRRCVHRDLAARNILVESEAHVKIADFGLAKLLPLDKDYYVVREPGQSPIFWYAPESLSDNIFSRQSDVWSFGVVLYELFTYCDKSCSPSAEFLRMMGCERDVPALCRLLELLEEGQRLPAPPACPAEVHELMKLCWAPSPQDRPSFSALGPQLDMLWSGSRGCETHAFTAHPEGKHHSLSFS
Put plainly: Inhibition of JAK kinase activity, EZ Reader microfluidic phosphorylation of peptide substrate: JAK3. Particulars: JAK3 kinase 1 nM; highest final concentration 10 μM, 1:3 serial dilution, 8 points, duplicates. The source says: (§2) EZ Reader available from PerkinElmer can be used for detecting the phosphorylation of polypeptide substrates catalyzed by kinases. This device is based on microfluidic separation technology, and can directly detect fluorescence labeled substrates and products. The separation step is achieved in a microfluidic chip by controlling the pressure and electric field intensity. In a kinase experiment, the product conversion rate is generally controlled at 20-30%. This biological assay method is used for identifying the inhibitory effect of the compounds on JAK.
(§3) The compound powder was dissolved in DMSO, sealed and stored in a refrigerator at −20° C. The in-house compound Ref1 was used as a positive control for testing of JAK1, JAK2 and Tyk2, and Ref2 was used as a positive control for testing of JAK3.
(§4) • S2.1. 1M HEPES buffer: 0.5M HEPES free acid and 0.5M HEPES sodium salt are weighed, added into ultrapure water for dissolution, brought to a desired volume, filtered and stored in a refrigerator at 4° C. • S2.2. 40 mM ATP solution: dissolved in a 50 mM HEPES buffer solution, prepared into 40 mM, aliquoted, and cryopreserved in a refrigerator at −20° C. • S2.3. 0.5% Tween 20: 100% Tween 20 was diluted with ultrapure water, and stored in a refrigerator at 4° C. • S2.4. 35% bovine serum albumin: a 35% bovine serum albumin solution is prepared in ultrapure water, aliquoted, and stored in a refrigerator at −20° C. • S2.5. 1M dithiothreitol solution: dithiothreitol is formulated into a 1M solution with ultrapure water, aliquoted, and stored in a refrigerator at −20° C. • S2.6. 0.5 mM Jaktide Peptide substrate solution: it is dissolved in 50 mM HEPES to 0.5 mM, aliquoted, and stored in a refrigerator at −20° C. • S2.7. 0.5 mM IRStide Peptide substrate solution: it is dissolved in 50 mM HEPES to 0.5 mM, aliquoted, and stored in a refrigerator at −20° C. • S2.8. Assay Buffer: 20 mM HEPES buffer, pH 7.4, 10 mM magnesium chloride, 0.01% bovine serum albumin BSA, 0.0005% Tween-20, and a 1 mM dithiothreitol solution. • S2.9. Stop Buffer: 180 mM HEPES buffer, 20 mM ethylenediamine tetraacetic acid (EDTA), and 0.2% Coating Reagent 3. • S2.10. Separation Buffer: 100 mM HEPES buffer, 10 mM EDTA, 0.0005% Tween 20, 0.1% Coating Reagent 3, and 1% dimethyl sulfoxide. 3. Experimental Procedures • S3.1. Preparation of compound plate
(§5) The compound is dissolved in dimethyl sulfoxide to 10 mM, a certain volume is taken and diluted to 0.6 mM, 10 μl of the diluted 0.6 mM solution is taken and added into a 384 microplate or 1:3 serial dilution, with a total of 8 concentration points. • S3.2. Compound layout
(§6) • positive control (HPE1): Ref1, final concentration: 10 μM • positive control (HPE1): Ref2, final concentration: 10 μM • negative control (ZPE): DMSO, with a final concentration of 1.6% • Compound: the highest final concentration at 10 μM, 1:3 serial dilution, with 8 concentration points and in duplicates. 4. Experimental operation steps • S4.1. the experimental plate was added with 250 nl of the compound per well with ECHO, and centrifuged at 1,000 rpm for 1 minute; • S4.2. the precipitate was added with 5 μl of the experimental buffer, and shaken for several seconds to fully dissolve the compound; • S4.3. the solution was added with 5 μl of a 3× substrate solution, as well as 5 μl of a 3× kinase solution, and centrifuged at 800 rpm for 1 minute; • S4.4. The final concentrations of JAK1, JAK2, JAK3 and Tyk2 kinases in the reaction system are 20, 1, 1 and 1 nM, respectively. • S4.5. the reaction system is incubated at room temperature, wherein the incubation time of each kinase is different, and there are differences in incubation time of different batches of kinases. • S4.6. When the reaction reaches 20%-30%, the reaction system is added with 15 μl of the stop buffer to terminate the reaction, and centrifuged at 1,000 rpm for 2 minutes. • S4.7. The precipitate was placed onto a EZ Reader for plate reading. • S4.8. […]

In a further experiment the target is JAK2 (Homo sapiens, UniProt O60674). The experiment is described as follows: Inhibition of JAK kinase activity, EZ Reader microfluidic phosphorylation of peptide substrate: JAK2. Particulars: JAK2 kinase 1 nM; highest final concentration 10 μM, 1:3 serial dilution, 8 points, duplicates.
Text: as §2, §3, §4, §5, §6

The target of another experiment is Tyk2 (Homo sapiens, UniProt P29597). The experiment is described as follows: Inhibition of JAK kinase activity, EZ Reader microfluidic phosphorylation of peptide substrate: Tyk2. Particulars: Tyk2 kinase 1 nM; highest final concentration 10 μM, 1:3 serial dilution, 8 points, duplicates. Summed up:
as §1

Chain of JAK1 (P23458 whole entry): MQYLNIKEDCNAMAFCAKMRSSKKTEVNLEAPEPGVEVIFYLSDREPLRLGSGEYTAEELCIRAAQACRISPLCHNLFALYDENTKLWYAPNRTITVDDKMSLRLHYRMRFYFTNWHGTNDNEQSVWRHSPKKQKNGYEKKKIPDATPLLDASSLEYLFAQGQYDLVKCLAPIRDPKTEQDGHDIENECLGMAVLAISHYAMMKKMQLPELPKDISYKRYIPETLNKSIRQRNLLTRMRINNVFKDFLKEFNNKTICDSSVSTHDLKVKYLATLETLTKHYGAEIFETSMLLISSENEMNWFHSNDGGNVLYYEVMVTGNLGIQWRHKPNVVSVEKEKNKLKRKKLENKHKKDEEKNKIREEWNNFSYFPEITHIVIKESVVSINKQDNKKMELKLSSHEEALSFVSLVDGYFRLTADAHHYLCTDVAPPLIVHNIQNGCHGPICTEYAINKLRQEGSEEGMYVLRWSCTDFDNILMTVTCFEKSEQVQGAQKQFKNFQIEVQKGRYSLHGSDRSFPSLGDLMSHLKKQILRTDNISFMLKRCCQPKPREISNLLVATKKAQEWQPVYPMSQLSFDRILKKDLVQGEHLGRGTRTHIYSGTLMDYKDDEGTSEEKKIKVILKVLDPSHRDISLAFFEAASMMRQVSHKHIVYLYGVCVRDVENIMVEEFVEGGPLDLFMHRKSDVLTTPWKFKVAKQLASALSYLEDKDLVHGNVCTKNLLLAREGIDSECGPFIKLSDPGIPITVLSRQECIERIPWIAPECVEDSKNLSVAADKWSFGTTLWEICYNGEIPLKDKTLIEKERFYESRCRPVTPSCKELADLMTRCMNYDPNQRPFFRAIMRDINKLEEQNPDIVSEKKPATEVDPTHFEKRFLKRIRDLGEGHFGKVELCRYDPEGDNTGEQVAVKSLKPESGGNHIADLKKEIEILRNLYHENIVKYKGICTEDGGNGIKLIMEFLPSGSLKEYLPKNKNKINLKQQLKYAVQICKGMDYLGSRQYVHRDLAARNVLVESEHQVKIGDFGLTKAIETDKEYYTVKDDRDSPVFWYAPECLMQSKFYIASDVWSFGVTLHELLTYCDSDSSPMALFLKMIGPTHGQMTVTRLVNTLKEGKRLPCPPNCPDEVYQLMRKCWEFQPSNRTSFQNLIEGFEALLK
Chain of JAK2 (O60674 whole entry): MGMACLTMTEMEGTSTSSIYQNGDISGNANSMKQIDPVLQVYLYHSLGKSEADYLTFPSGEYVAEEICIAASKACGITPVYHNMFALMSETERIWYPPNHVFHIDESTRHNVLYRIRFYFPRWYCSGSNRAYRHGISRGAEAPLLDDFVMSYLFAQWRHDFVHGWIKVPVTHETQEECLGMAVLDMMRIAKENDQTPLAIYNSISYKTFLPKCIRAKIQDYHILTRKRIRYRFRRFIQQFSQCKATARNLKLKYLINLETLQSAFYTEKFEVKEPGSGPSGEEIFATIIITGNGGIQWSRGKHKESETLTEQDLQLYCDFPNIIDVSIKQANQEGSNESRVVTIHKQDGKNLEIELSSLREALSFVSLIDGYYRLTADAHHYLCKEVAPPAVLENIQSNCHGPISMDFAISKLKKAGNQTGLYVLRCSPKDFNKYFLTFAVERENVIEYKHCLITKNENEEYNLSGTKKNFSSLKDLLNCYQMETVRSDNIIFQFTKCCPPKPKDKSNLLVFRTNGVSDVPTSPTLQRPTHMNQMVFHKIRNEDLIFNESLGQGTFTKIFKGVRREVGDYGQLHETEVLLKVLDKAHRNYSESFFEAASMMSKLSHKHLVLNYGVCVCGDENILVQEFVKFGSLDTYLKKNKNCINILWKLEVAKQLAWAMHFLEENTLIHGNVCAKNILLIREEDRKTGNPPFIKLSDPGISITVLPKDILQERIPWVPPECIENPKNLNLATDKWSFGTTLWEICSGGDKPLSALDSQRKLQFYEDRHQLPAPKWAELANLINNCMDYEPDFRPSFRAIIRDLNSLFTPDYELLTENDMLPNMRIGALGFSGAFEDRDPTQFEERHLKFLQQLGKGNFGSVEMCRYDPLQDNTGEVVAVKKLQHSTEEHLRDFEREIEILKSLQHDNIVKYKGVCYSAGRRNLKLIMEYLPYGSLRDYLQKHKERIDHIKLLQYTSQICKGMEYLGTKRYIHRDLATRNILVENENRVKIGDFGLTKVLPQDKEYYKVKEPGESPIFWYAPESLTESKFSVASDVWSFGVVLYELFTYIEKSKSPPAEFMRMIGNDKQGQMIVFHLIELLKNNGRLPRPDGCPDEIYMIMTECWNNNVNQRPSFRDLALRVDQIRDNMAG
Chain of Tyk2 (P29597 whole entry): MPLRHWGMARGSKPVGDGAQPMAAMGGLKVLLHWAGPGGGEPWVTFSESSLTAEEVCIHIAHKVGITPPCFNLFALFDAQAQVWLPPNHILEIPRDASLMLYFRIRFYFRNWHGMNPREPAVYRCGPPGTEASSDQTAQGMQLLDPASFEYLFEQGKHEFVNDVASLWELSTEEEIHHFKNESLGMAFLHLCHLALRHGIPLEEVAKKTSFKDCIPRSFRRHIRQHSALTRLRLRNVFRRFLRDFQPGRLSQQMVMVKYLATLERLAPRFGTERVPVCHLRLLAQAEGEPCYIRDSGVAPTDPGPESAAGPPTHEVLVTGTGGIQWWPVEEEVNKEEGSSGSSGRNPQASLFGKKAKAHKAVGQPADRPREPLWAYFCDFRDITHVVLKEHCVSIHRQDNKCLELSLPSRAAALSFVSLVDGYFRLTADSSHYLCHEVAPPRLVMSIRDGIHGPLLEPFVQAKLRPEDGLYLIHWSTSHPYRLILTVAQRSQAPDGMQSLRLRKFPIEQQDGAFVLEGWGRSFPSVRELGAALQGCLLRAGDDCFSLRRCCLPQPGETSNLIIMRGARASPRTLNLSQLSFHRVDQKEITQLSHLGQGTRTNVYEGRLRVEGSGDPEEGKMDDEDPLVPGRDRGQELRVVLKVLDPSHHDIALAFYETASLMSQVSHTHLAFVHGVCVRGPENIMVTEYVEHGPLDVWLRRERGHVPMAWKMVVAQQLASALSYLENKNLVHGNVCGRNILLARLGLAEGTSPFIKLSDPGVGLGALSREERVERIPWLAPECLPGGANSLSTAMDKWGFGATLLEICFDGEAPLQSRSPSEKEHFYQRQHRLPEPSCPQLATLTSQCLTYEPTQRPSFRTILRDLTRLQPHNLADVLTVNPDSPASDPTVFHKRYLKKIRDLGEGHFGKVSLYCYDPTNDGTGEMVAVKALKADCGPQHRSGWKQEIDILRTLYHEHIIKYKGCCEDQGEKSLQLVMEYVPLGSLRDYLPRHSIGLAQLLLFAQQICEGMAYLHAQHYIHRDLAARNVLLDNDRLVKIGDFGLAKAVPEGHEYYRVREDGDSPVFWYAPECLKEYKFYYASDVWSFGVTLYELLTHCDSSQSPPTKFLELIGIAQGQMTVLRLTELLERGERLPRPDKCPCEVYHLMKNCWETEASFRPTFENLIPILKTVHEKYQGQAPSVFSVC

For `CCS(=O)(=O)N1CC(n2cc(-c3ccnc(Nc4cnn(C)c4)n3)cn2)C1` [TDM-180665, 4-(1-(1-(ethylsulfonyl)azetidin-3-yl)-1H-pyrazol-4-yl)-N-(1-methyl-1H-pyrazol-4-yl)pyrimidin-2-amine], the half-inhibitory concentration (IC50) was 1 to 10 µM against JAK1, at least 10 µM at JAK3, 1 to 10 µM against JAK2 and 1 to 10 µM against Tyk2.
As to `CCCS(=O)(=O)N1CC(n2cc(-c3ccnc(Nc4cnn(C)c4)n3)cn2)C1` [TDM-180666, N-(1-methyl-1H-pyrazol-4-yl)-4-(1-(1-(propylsulfonyl)azetidin-3-yl)-1H-pyrazol-4-yl)pyrimidin-2-amine], the IC50 against JAK1 is at least 10 µM; on JAK3, at least 10 µM; against JAK2, 1 to 10 µM; against Tyk2, at least 10 µM.
As for `Cn1cc(Nc2nccc(-c3cnn(C4CN(C(=O)C5CC5)C4)c3)n2)cn1` [TDM-180667, cyclopropyl(3-(4-(2-((1-methyl-1H-pyrazol-4-yl)amino)pyrimidin-4-yl)-1H-pyrazol-1-yl)azetidin-1-yl)ketone], the IC50 against JAK1, against JAK3, against JAK2 and on Tyk2 was at least 10 µM in each case.
As for `Cn1cc(Nc2nccc(-c3cnn(C4CN(C(=O)C5CC5(F)F)C4)c3)n2)cn1` (stereo not drawn) [TDM-180668, (2,2-difluorocyclopropyl)(3-(4-(2-((1-methyl-1H-pyrazol-4-yl)amino)pyrimidin-4-yl)-1H-pyrazol-1-yl)azetidin-1-yl)ketone], the IC50 against JAK1, on JAK3, at JAK2 and against Tyk2 was at least 10 µM throughout.
`Cn1cc(Nc2nccc(-c3cnn(C4CN(C(=O)CC(F)(F)F)C4)c3)n2)cn1` [TDM-180669, 3,3,3-trifluoro-1-(3-(4-(2-((1-methyl-1H-pyrazol-4-yl)amino)pyrimidin-4-yl)-1H-pyrazol-1-yl)azetidin-yl)propan-1-one]: the IC50 against JAK1, at JAK3, on JAK2 and against Tyk2 was at least 10 µM each time.
`CCCC(=O)N1CC(n2cc(-c3ccnc(Nc4cnn(C)c4)n3)cn2)C1` [TDM-180670]: the IC50 on JAK1, against JAK3, on JAK2 and at Tyk2 was at least 10 µM in each case.
For `Cn1cc(Nc2nccc(-c3cnn(C4CN(C(=O)CC#N)C4)c3)n2)cn1` [TDM-180671, 3-(3-(4-(2-((1-methyl-1H-pyrazol-4-yl)amino)pyrimidin-4-yl)-1H-pyrazol-1-yl)azetidin-1-yl)-3-oxopropanenitrile], the IC50 on JAK1, against JAK3, on JAK2 and against Tyk2 was at least 10 µM each time.
On to `Cn1cc(Nc2nccc(-c3cnn(C4CN(C(=O)CO)C4)c3)n2)cn1` [TDM-180672, 2-hydroxy-1-(3(4-(2-((1-methyl-1H-pyrazol-4-yl)amino)pyrimidin-4-yl)-1H-pyrazol-1-yl)azetidin-1-yl)ethanone], for which the half-maximal inhibitory concentration (IC50) at JAK1, against JAK3, against JAK2 and against Tyk2 was at least 10 µM in each case.
In the case of `Cn1cc(Nc2nccc(-c3cnn(C4CCN(C(=O)C5CC5)CC4)c3)n2)cn1` [TDM-180673, cyclopropyl(4-(4-(2-((1-methyl-1H-pyrazol-4-yl)amino)pyrimidin-4-yl)-1H-pyrazol-1-yl)piperidin-1-yl)ketone], the IC50 against JAK1, at JAK3, on JAK2 and on Tyk2 was at least 10 µM throughout.
In the case of `CCS(=O)(=O)N1CCC(n2cc(-c3ccnc(Nc4cnn(C)c4)n3)cn2)CC1` [TDM-180674, 4-(1-(1-(ethylsulfonyl)piperidin-4-yl)-1H-pyrazol-4-yl)-N-(1-methyl-1H-pyrazol-4-yl)pyrimidin-2-amine], the concentration for half-maximal inhibition (IC50) at JAK1 was at least 10 µM; at JAK3 it was at least 10 µM; against JAK2 it was 1 to 10 µM; on Tyk2 it was 1 to 10 µM.
As for `CCCS(=O)(=O)N1CCC(n2cc(-c3ccnc(Nc4cnn(C)c4)n3)cn2)CC1` [TDM-180675, N-(1-methyl-1H-pyrazol-4-yl)-4-(1-(1-(propylsulfonyl)piperidin-4-yl)-1H-pyrazol-4-yl)pyrimidin-2-amine], the concentration for half-maximal inhibition (IC50) against JAK1 is at least 10 µM; against JAK3, at least 10 µM; at JAK2 it was 1 to 10 µM; against Tyk2, at least 10 µM.
On to `CCC(=O)N1CCC(n2cc(-c3ccnc(Nc4cnn(C)c4)n3)cn2)CC1` [TDM-180676, 1-(4-(4-(2-((1-methyl-1H-pyrazol-4-yl)amino)pyrimidin-4-yl)-1H-pyrazol-1-yl)piperidin-1-yl)propan-1-one], for which the IC50 against JAK1, on JAK3, at JAK2 and against Tyk2 was at least 10 µM each time.
